Test results: US20260345596A1, “TREATMENT OF LOCALLY ADVANCED OR METASTATIC UROTHELIAL CARCINOMA WITH ERDAFINITIB” (priority 2023, published 2026)
Several values for one entry are separate records, joined by “and”; a condition that tells them apart may be missing. Identical values can stand only once. Marks after values point to notes of the source that are not given here.

Experiment: Study BLC3001 (NCT03390504, THOR) Cohort 1: safety, adverse events, laboratory abnormalities and exposure
[1] = adverse events leading to death
[2] = any grade, adverse events of interest
[3] = any grade, serious adverse events, any cause
[4] = grade 3-4 adverse events of interest
[5] = leading to treatment discontinuation

## COc1cc(OC)cc(N(CCNC(C)C)c2ccc3ncc(-c4cnn(C)c4)nc3c2)c1 [Erdafitinib, N-(3,5-dimethoxyphenyl)-N′-(1-methylethyl)-N-[3-(1-methyl-1H-pyrazol-4-yl)quinoxalin-6-yl]ethane-1,2-diamine]
Grade ≥3, treatment-related
  Aspartate aminotransferase increased: 2 (1.5) no. (%)
  Asthenia: 0 no. (%)
  Constipation: 0 no. (%)
  Decreased appetite: 3 (2.2) no. (%)
  Diarrhea: 4 (3.0) no. (%)
  Dry eye: 0 no. (%)
  Dry mouth: 0 no. (%)
  Dry skin: 2 (1.5) no. (%)
  Dysgeusia: 1 (0.7) no. (%)
  Fatigue: 0 no. (%)
  Hyperphosphatemia: 7 (5.2) no. (%)
  Nausea: 1 (0.7) no. (%)
  Neutropenia: 0 no. (%)
  Onycholysis: 8 (5.9) no. (%)
  Onychomadesis: 2 (1.5) no. (%)
  Palmar-plantar erythrodysesthesia syndrome: 13 (9.6) no. (%)
  Stomatitis: 11 (8.1) no. (%)
[1]
  Atypical pneumonia: 0 no. (%)
  Cardiorespiratory arrest: 1 (0.7) no. (%)
  Febrile bone marrow aplasia: 0 no. (%)
  Febrile neutropenia: 0 no. (%)
  Pneumonia necrotizing: 1 (0.7) no. (%)
  Renal failure: 1 (0.7) no. (%)
  Septic shock: 0 no. (%)
  Sudden death: 2 (1.5) no. (%)
Any cause
  Adverse events leading to treatment discontinuation: 19 (14.1%) no. (%) and 19 (14.1) no. (%)
Any grade
  Central serous retinopathy: 23 (17.0%) n (%) and 23 (17.0) n (%)
  Eye disorders (excluding central serous retinopathy): 57 (42.2) n (%)
  Nail disorders: 90 (66.7) n (%)
  Skin disorders: 74 (54.8) n (%)
[2]
  Central serous retinopathy: 23 (17.0) no. (%)
  Chorioretinopathy: 8 (5.9) no. (%)
  Detachment of macular retinal pigment epithelium: 1 (0.7) no. (%)
  Detachment of retinal pigment epithelium: 7 (5.2) no. (%)
  Eye disorders (excluding central serous retinopathy): 57 (42.2) no. (%)
  Macular detachment: 2 (1.5) no. (%)
  Nail disorders: 90 (66.7) no. (%)
  Retinopathy: 2 (1.5) no. (%)
  Skin disorders: 74 (54.8) no. (%)
  Subretinal fluid: 5 (3.7) no. (%)
[3]
  Hematuria: 5 (3.7) no. (%)
  Hyponatremia: 3 (2.2) no. (%)
  Urinary tract infection: 6 (4.4) no. (%)
Any grade, treatment-emergent
  Neutropenia: 0 no.
Any grade, treatment-related
  Alanine aminotransferase increased: 29 (21.5) no. (%)
  Alopecia: 32 (23.7) no. (%)
  Anemia: 16 (11.9) no. (%)
  Aspartate aminotransferase increased: 25 (18.5) no. (%)
  Asthenia: 11 (8.1) no. (%)
  Constipation: 12 (8.9) no. (%)
  Decreased appetite: 28 (20.7) no. (%)
  Diarrhea: 74 (54.8) no. (%)
  Dry eye: 22 (16.3) no. (%)
  Dry mouth: 52 (38.5) no. (%)
  Dry skin: 30 (22.2) no. (%)
  Dysgeusia: 34 (25.2) no. (%)
  Fatigue: 18 (13.3) no. (%)
  Hyperphosphatemia: 106 (78.5) no. (%)
  Nausea: 14 (10.4) no. (%)
  Neutropenia: 0 no. (%)
  Onycholysis: 31 (23.0) no. (%)
  Onychomadesis: 27 (20.0) no. (%)
  Palmar-plantar erythrodysesthesia syndrome: 41 (30.4) no. (%)
  Stomatitis: 62 (45.9) no. (%)
count
  Treatment-related deaths: 1
Grade 3-4
  Central serous retinopathy: 3 (2.2) n (%)
  Eye disorders (excluding central serous retinopathy): 3 (2.2) n (%)
  Nail disorders: 15 (11.1) n (%)
  Skin disorders: 16 (11.9) n (%)
[4]
  Central serous retinopathy: 2.2%
  Nail disorders: 11.1%
  Skin disorders: 11.9%
Grade ≥3, treatment-related
  Onycholysis: 5.9%
  Palmar-plantar erythrodysesthesia syndrome: 9.6%
  Stomatitis: 8.1%
In vivo
  Treatment-emergent adverse events that led to death: 4.4%
  Treatment-related serious adverse events: 13.3%
investigator-assessed
  Treatment-related adverse events that led to death: 0.7%
[5]
  Anemia: 0 no. (%)
  Any patient with one or more adverse events leading to treatment discontinuation: 19 (14.1) no. (%)
  Atypical pneumonia: 0 no. (%)
  COVID-19: 1 (0.7) no. (%)
  Cardiorespiratory arrest: 1 (0.7) no. (%)
  Detachment of retinal pigment epithelium: 1 (0.7) no. (%)
  Diarrhea: 0 no. (%)
  Dry skin: 1 (0.7) no. (%)
  Dysphagia: 1 (0.7) no. (%)
  Dyspnea: 0 no. (%)
  Edema peripheral: 0 no. (%)
  Extremity necrosis: 1 (0.7) no. (%)
  Febrile bone marrow aplasia: 0 no. (%)
  Febrile neutropenia: 0 no. (%)
  Fractured sacrum: 0 no. (%)
  Hematuria: 1 (0.7) no. (%)
  Hyponatremia: 0 no. (%)
  Hypotension: 1 (0.7) no. (%)
  Ileus: 0 no. (%)
  Keratitis: 1 (0.7) no. (%)
  Nail dystrophy: 1 (0.7) no. (%)
  Onycholysis: 2 (1.5) no. (%)
  Paronychia: 1 (0.7) no. (%)
  Peripheral sensory neuropathy: 0 no. (%)
  Pneumonia necrotizing: 1 (0.7) no. (%)
  Pneumonitis: 0 no. (%)
  Renal failure: 1 (0.7) no. (%)
  Sciatica: 0 no. (%)
  Septic shock: 0 no. (%)
  Sudden death: 2 (1.5) no. (%)
  Syncope: 0 no. (%)
  Urinary retention: 1 (0.7) no. (%)
  Vision blurred: 1 (0.7) no. (%)
  Vomiting: 0 no. (%)
Safety population
  Adverse events leading to dose interruption: 97 (71.9) no. (%)
  Adverse events leading to dose reduction: 93 (68.9) no. (%)
  Adverse events of any cause: 98.5%
  Any adverse events (treatment-emergent): 133 (98.5%) no. (%) and 133 (98.5) no. (%)
  COVID-19-related adverse events: 12 (8.9) no. (%)
  COVID-19-related serious adverse events: 1 (0.7) no. (%)
  Grade 3-4 serious adverse events: 52 (38.5) no. (%)
  Grade 3-4 treatment-related adverse events: 45.9%
  Related adverse events (≥1 treatment-related AE, any grade): 131 (97.0) no. (%)
  Related adverse events leading to death: 1 (0.7) no. (%)
  Related adverse events leading to dose interruption: 89 (65.9) no. (%)
  Related adverse events leading to dose reduction: 89 (65.9) no. (%)
  Related adverse events leading to treatment discontinuation: 11 (8.1%)^b no. (%) and 11 (8.1) no. (%)
  Related grade 3-4 adverse events: 62 (45.9) no. (%)
  Related grade 3-4 serious adverse events: 16 (11.9) no. (%)
  Related serious adverse events: 18 (13.3) no. (%)
treatment-emergent
  Adverse events leading to death: 6 (4.4%) no. (%) and 6 (4.4) no. (%)
  Grade 3-4 adverse events: 85 (63.0%) no. (%) and 85 (63.0) no. (%)
  Serious adverse events: 56 (41.5%) no. (%) and 56 (41.5) no. (%)
treatment-emergent, any grade
  Clinically important TEAEs: 125 (92.6%) n (%)
treatment-related AEs
  Eye disorders leading to discontinuation: ^bMost frequent treatment-related AEs leading to discontinuation of erdafitinib included eye disorders (3 patients) and skin and subcutaneous disorders (3 patients).
treatment-related, any grade
  Diarrhea: 74 (54.8) n (%)
  Dry mouth: 52 (38.5) n (%)
  Hyperphosphatemia: 106 (78.5) n (%)
  Onycholysis: 31 (23.0) n (%)
  PPE syndrome: 41 (30.4) n (%)
  Stomatitis: 62 (45.9) n (%)
treatment-related, grade 3-4
  Diarrhea: 4 (3.0) n (%)
  Dry mouth: 0 n (%)
  Hyperphosphatemia: 7 (5.2) n (%)
  Onycholysis: 8 (5.9) n (%)
  PPE syndrome: 13 (9.6) n (%)
  Stomatitis: 11 (8.1) n (%)
Versus chemotherapy
  Lowering of discontinuation due to treatment-related adverse events: about 5.3%
